Results as given in paper PMC6268855, “New Trifluoromethyl Triazolopyrimidines as Anti-Plasmodiumfalciparum Agents” (Molecules, 2012).

Assays:
Type in all cases: cell-based
[1] = test system: Plasmodium falciparum chloroquine-resistant W2 clone; assay: anti-HRP2 test on P. falciparum-infected erythrocytes; conditions: W2 clone
Protocol: (§1) Briefly, the parasites were kept as described at 37 °C in human erythrocytes (A^+) in complete medium (RPMI 1640 supplemented with 10% human sera blood group A^+, 2% glutamine, and 7.5% NaHCO3) either in Petri dishes in a candle jar or in 25-cm culture flasks in an environment containing a gas mixture atmosphere (3% O2, 5% CO2 and 91% N2). Before testing, the ring-stage parasites were synchronized by sorbitol; the suspension was adjusted for parasitemia and hematocrit as described below for each test used.
(§2) The effects of compounds against the W2 P. falciparum blood cultures were evaluated through incorporation of ^3H hypoxanthine (Perkin Elmer, Waltham, MA, USA) by the parasites. Alternatively, compound effects were also examined using monoclonal antibodies to a commercially available parasite histidine and alanine-rich protein (HRP2) (MPFM ICLLAB-55A®, MPFG55P ICLLAB®, Immunology Consultants Laboratory Inc. (ICL), Portland, OR, USA), as described previously. The [3H]-hypoxanthine assay was performed with 1% of parasitemia and 1% of hematocrit, and the level of isotope incorporation was read in a beta-counter (Perkin Elmer). The anti-HRP2 test was performed with 0.05% parasitemia and 1.5% hematocrit, and the quantification of protein was determined using a specific read at 450 nm in a spectrophotometer (SpectraMax340PC^384, Molecular Devices, Sunnyvale, CA, USA). Drug activities were expressed by the half-maximal inhibitory dose (IC50) compared to the drug-free controls and estimated using the curve-fitting software Origin 8.0 (OriginLab Corporation, Northampton, MA, USA).

[2] = test system: Plasmodium falciparum chloroquine-resistant W2 clone; assay: [3H]-hypoxanthine incorporation assay on P. falciparum-infected erythrocytes; conditions: Erythrocyte, W2 clone, 1% parasitemia, 1% hematocrit, read-out: IC50 Plasmodium Falciparum Hypoxanthine
Protocol: as §1, §2

[3] = test system: human hepatoma cell line (HepG2); conditions: MTT, 24 h incubation
Protocol: For in vitro cytotoxicity experiments, the cell monolayer was trypsinized, washed with culture medium, distributed in a flat-bottomed 96-well plate (5 × 10^3 cells/well), and finally incubated for 18 h at 37 °C for cell adherence.
For cytotoxicity testing, we used the (3-(4,5-dimethylthiazol-2-yl)-2,5-diphenyltetrazolium bromide (MTT) assay, performed as described in the literature. The HepG2 cell line was incubated with 20 µL of the compounds in different concentrations (200–25 µg/mL) for 24 h in an atmosphere of 5% CO2 at 37 °C.
For the MTT assay, which evaluates mitochondrial viability, 20 µL of MTT solution (5 mg/mL) was added, and the plates were incubated for an additional 3 h. After incubation, the supernatant was carefully removed from the wells, followed by addition of 100 µL DMSO with thorough mixing. Optical densities at 570 and 630 nm (background) were determined by an ELISA reader.
Cell viability was expressed as the percentage of control absorbance obtained in untreated cells after subtracting the absorbance from appropriate background. Lastly, the minimum lethal dose for 50% of the cells (MLD50) was determined as previously described in the literature. The ratio between MLD50 and drug activity (IC50) in vitro was used to determine the selectivity index (SI).

IC50 ([1]; Plasmodium falciparum, Erythrocyte, 0.05% parasitemia, 1.5% hematocrit, read-out: IC50 Plasmodium Falciparum Anti-HRP2): 73 ± 17 µM | IC50 [2]: 39.1 µM | MDL50 HepG2 [3]: >558 µM
SMILES: CCN(CC)CCCC(C)Nc1cc(C)nc2nc(C(F)(F)F)nn12 (stereo not shown) [Compound 29, 5-Methyl-7-N'-(N,N-diethylpentane-1,4-diamine)-2-(trifluoromethyl)[1,2,4]triazolo[1,5-a]pyrimidine]
activity class against P. falciparum ([1]; class by IC50): Inactive
